# Test results taken from patent publication US7704995B2 (Exelixis, Inc., priority 2003, dated 2010).
# Target: T1, Chk1 (Homo sapiens, UniProt O14757)
# T1 construct: purchased Upstate Biotechnology
# T1 sequence (O14757 1-476): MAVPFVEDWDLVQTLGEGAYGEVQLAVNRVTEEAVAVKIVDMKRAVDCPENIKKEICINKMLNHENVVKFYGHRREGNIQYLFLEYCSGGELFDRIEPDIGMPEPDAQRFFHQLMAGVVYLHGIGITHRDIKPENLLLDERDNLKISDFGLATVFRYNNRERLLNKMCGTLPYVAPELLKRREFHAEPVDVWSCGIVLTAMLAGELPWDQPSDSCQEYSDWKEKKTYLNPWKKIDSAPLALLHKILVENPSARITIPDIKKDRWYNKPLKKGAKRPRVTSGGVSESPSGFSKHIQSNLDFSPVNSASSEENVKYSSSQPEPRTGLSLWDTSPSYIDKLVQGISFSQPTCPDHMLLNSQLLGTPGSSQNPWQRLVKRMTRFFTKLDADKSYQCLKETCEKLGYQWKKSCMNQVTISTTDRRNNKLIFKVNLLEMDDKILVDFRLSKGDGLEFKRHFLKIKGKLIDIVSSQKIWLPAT
# Experiment: Chk1 kinase assay: incorporation of γ-33P ATP into immobilized myelin basic protein
# Type: biochemical
# Details: read-out: Chk1 IC50
# Procedure, shortened: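 Radiometric filter-free format: Chk1 10 nM, 10 μM ATP; Chk2 20 nM, 30 μM ATP; γ-33P ATP tracer; immobilized MBP substrate; Hepes pH 7.6, 10 mM MgCl2, 1 mM DTT; 1 h RT; 1% DMSO. Scintillation counting of washed plates. IC50/Ki from curve fit.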
row,Structure (SMILES),IC50 [µM]
1,"CNC(=O)c1nc(-c2cccc(C(=O)NCc3ccc(S(C)(=O)=O)cc3)c2)cnc1N [Example 255, 3-amino-N-methyl-6-{3-[({[4-(methylsulfonyl)phenyl]methyl}amino)carbonyl]phenyl}pyrazine-2-carboxamide]",0.05 to 1
2,"CNC(=O)c1nc(-c2cccc(C(=O)NCc3cc(Br)ccc3F)c2)cnc1N [Example 256, 3-amino-6-[3-({[(5-bromo-2-fluorophenyl)methyl]amino}carbonyl)phenyl]-N-methylpyrazine-2-carboxamide]",0.05 to 1
3,"CNC(=O)c1nc(-c2cccc(C(=O)NCc3ccc(F)c(Br)c3)c2)cnc1N [Example 257, 3-amino-6-[3-({[(3-bromo-4-fluorophenyl)methyl]amino}carbonyl)phenyl]-N-methylpyrazine-2-carboxamide]",0.05 to 1
4,"CNC(=O)c1nc(-c2cccc(C(=O)NCc3c(OC)cc(OC)cc3OC)c2)cnc1N [Example 258, 3-amino-N-methyl-6-{3-[({[2,4,6-tris(methyloxy)phenyl]methyl}amino)carbonyl]phenyl}pyrazine-2-carboxamide]",0.05 to 1
5,"CNC(=O)c1nc(-c2cccc(C(=O)NCc3cccc(C)c3)c2)cnc1N [Example 259, 3-amino-N-methyl-6-[3-({[(3-methylphenyl)methyl]amino}carbonyl)phenyl]pyrazine-2-carboxamide]",0.05 to 1
6,"CNC(=O)c1nc(-c2cccc(C(=O)NCc3ccc(Br)cc3F)c2)cnc1N [Example 260, 3-amino-6-[3-({[(4-bromo-2-fluorophenyl)methyl]amino}carbonyl)phenyl]-N-methylpyrazine-2-carboxamide]",0.05 to 1
7,"CNC(=O)c1nc(-c2cccc(C(=O)NCc3cc(C)ccc3C)c2)cnc1N [Example 261, 3-amino-6-[3-({[(2,5-dimethylphenyl)methyl]amino}carbonyl)phenyl]-N-methylpyrazine-2-carboxamide]",0.05 to 1
8,"CNC(=O)c1nc(-c2cccc(C(=O)NCc3cc(C(F)(F)F)cc(C(F)(F)F)c3)c2)cnc1N [Example 262, 3-amino-6-{3-[({[3,5-bis(trifluoromethyl)phenyl]methyl}amino)carbonyl]phenyl}-N-methylpyrazine-2-carboxamide]",0.05 to 1
9,"CNC(=O)c1nc(-c2cccc(C(=O)NCC(c3ccccc3)c3ccccc3)c2)cnc1N [Example 263, 3-amino-6-(3-{[(2,2-diphenylethyl)amino]carbonyl}phenyl)-N-methylpyrazine-2-carboxamide]",0.05 to 1
10,"CNC(=O)c1nc(-c2ccsc2)cnc1N [Example 264, 3-amino-N-methyl-6-(3-thienyl)pyrazine-2-carboxamide]",0.05 to 1
11,"CNC(=O)c1nc(-c2cccc(S(=O)(=O)NCc3ccccc3)c2)cnc1N [Example 265, 3-amino-N-methyl-6-(3-{[(phenylmethyl)amino]sulfonyl}phenyl)pyrazine-2-carboxamide]",1 to 10
12,"CNC(=O)c1nc(-c2cnc(N)c(C(=O)NC)n2)cnc1N [Example 266, 5,5′-diamino-N,N′-dimethyl-2,2′-bipyrazine-6,6′-dicarboxamide]",≥ 10
13,"CNC(=O)c1nc(-c2ccc3[nH]ccc3c2)cnc1N [Example 267, 3-amino-6-(1H-indol-5-yl)-N-methylpyrazine-2-carboxamide]",0.05 to 1
14,"CNC(=O)c1nc(-c2cccs2)cnc1N [Example 268, 3-amino-N-methyl-6-(2-thienyl)pyrazine-2-carboxamide]",0.05 to 1
15,"CNC(=O)c1nc(-c2ccncc2)cnc1N [Example 269, 3-amino-N-methyl-6-pyridin-4-ylpyrazine-2-carboxamide]",1 to 10
16,"Nc1ncc(-c2cccc(C(=O)NCc3ccccc3)c2)nc1C(=O)NC1CC1 [Example 270, 3-amino-N-cyclopropyl-6-(3-{[(phenylmethyl)amino]carbonyl}phenyl)pyrazine-2-carboxamide]",1 to 10
17,"Nc1ncc(-c2cccc(C(=O)NCc3c(F)cccc3Cl)c2)nc1C(=O)NC1CC1 [Example 271, 3-amino-6-[3-({[(2-chloro-6-fluorophenyl)methyl]amino}carbonyl)phenyl]-N-cyclopropylpyrazine-2-carboxamide]",≥ 10
18,"CCNC(=O)c1nc(-c2cccc(C(=O)NCc3ccccc3)c2)cnc1N [Example 272, 3-amino-N-ethyl-6-(3-{[(phenylmethyl)amino]carbonyl}phenyl)pyrazine-2-carboxamide]",1 to 10

row,Structure (SMILES),IC50 [µM]
1,"CCNC(=O)c1nc(-c2cccc(C(=O)NCc3c(F)cccc3Cl)c2)cnc1N [Example 273, 3-amino-6-[3-({[(2-chloro-6-fluorophenyl)methyl]amino}carbonyl)phenyl]-N-ethylpyrazine-2-carboxamide]",1 to 10
2,"CNC(=O)c1nc(-c2cccc(C(=O)NCc3cccc(Cl)c3Cl)c2)cnc1N [Example 274, 3-amino-6-[3-({[(2,3-dichlorophenyl)methyl]amino}carbonyl)phenyl]-N-methylpyrazine-2-carboxamide]",0.05 to 1
3,"CNC(=O)c1nc(-c2cccc(C(=O)NCc3ccc(Cl)cc3F)c2)cnc1N [Example 275, 3-amino-6-[3-({[(4-chloro-2-fluorophenyl)methyl]amino}carbonyl)phenyl]-N-methylpyrazine-2-carboxamide]",< 0.05
4,"CNC(=O)c1nc(-c2cccc(C(=O)NCc3cc(Cl)cc(Cl)c3)c2)cnc1N [Example 276, 3-amino-6-[3-({[(3,5-dichlorophenyl)methyl]amino}carbonyl)phenyl]-N-methylpyrazine-2-carboxamide]",0.05 to 1
5,"CNC(=O)c1nc(-c2cccc(C(=O)NCc3cc(Cl)ccc3F)c2)cnc1N [Example 277, 3-amino-6-[3-({[(5-chloro-2-fluorophenyl)methyl]amino}carbonyl)phenyl]-N-methylpyrazine-2-carboxamide]",0.05 to 1
6,"CNC(=O)c1nc(-c2cccc(C(=O)NC3CC3)c2)cnc1N [Example 278, 3-amino-6-{3-[(cyclopropylamino)carbonyl]phenyl}-N-methylpyrazine-2-carboxamide]",1 to 10
7,"CNC(=O)c1nc(-c2cccc(C(=O)NCc3ccc(Cl)c(Cl)c3)c2)cnc1N [Example 279, 3-amino-6-[3-({[(3,4-dichlorophenyl)methyl]amino}carbonyl)phenyl]-N-methylpyrazine-2-carboxamide]",0.05 to 1
8,"CNC(=O)c1nc(-c2cccc(C(=O)NCc3ccccc3-c3ccc(F)cc3)c2)cnc1N [Example 280, 3-amino-6-[3-({[(4′-fluorobiphenyl-2-yl)methyl]amino}carbonyl)phenyl]-N-methylpyrazine-2-carboxamide]",0.05 to 1
9,"CNC(=O)c1nc(-c2cccc(C(=O)NCc3ccc(F)c(F)c3F)c2)cnc1N [Example 281, 3-amino-N-methyl-6-[3-({[(2,3,4-trifluorophenyl)methyl]amino}carbonyl)phenyl]pyrazine-2-carboxamide]",0.05 to 1
10,"CNC(=O)c1nc(-c2cccc(C(=O)NCc3c(F)ccc(Cl)c3F)c2)cnc1N [Example 282, 3-amino-6-[3-({[(3-chloro-2,6-difluorophenyl)methyl]amino}carbonyl)phenyl]-N-methylpyrazine-2-carboxamide]",0.05 to 1
11,"CNC(=O)c1nc(-c2cccc(C(=O)NC3c4ccccc4-c4ccccc43)c2)cnc1N [Example 284, 3-amino-6-{3-[(9H-fluoren-9-ylamino)carbonyl]phenyl}-N-methylpyrazine-2-carboxamide]",≥ 10
12,"CNC(=O)c1nc(-c2cccc(C(=O)NCc3ccccc3C)c2)cnc1N [Example 285, 3-amino-N-methyl-6-[3-({[(2-methylphenyl)methyl]amino}carbonyl)phenyl]pyrazine-2-carboxamide]",0.05 to 1
13,"CNC(=O)c1nc(-c2cccc(C(=O)NCc3ccc(C)c(C)c3)c2)cnc1N [Example 286, 3-amino-6-[3-({[(3,4-dimethylphenyl)methyl]amino}carbonyl)phenyl]-N-methylpyrazine-2-carboxamide]",0.05 to 1
14,"CNC(=O)c1nc(-c2cccc(C(=O)NCc3cc(F)ccc3C)c2)cnc1N [Example 287, 3-amino-6-[3-({[(5-fluoro-2-methylphenyl)methyl]amino}carbonyl)phenyl]-N-methylpyrazine-2-carboxamide]",0.05 to 1
15,"CNC(=O)c1nc(-c2cccc(C(=O)NCc3ccc(F)c(F)c3)c2)cnc1N [Example 288, 3-amino-6-[3-({[(3,4-difluorophenyl)methyl]amino}carbonyl)phenyl]-N-methylpyrazine-2-carboxamide]",0.05 to 1
16,"CNC(=O)c1nc(-c2cccc(C(=O)NCc3ccccc3F)c2)cnc1N [Example 289, 3-amino-6-[3-({[(2-fluorophenyl)methyl]amino}carbonyl)phenyl]-N-methylpyrazine-2-carboxamide]",0.05 to 1
17,"CNC(=O)c1nc(-c2cccc(C(=O)NCc3ccc(N4CCN(C)CC4)cc3)c2)cnc1N [Example 290, 3-amino-N-methyl-6-{3-[({[4-(4-methylpiperazin-1-yl)phenyl]methyl}amino)carbonyl]phenyl}pyrazine-2-carboxamide]",1 to 10
18,"CNC(=O)c1nc(-c2ccc(F)c(C(=O)NCc3ccccc3)c2)cnc1N [Example 291, 3-amino-6-(4-fluoro-3-{[(phenylmethyl)amino]carbonyl}phenyl)-N-methylpyrazine-2-carboxamide]",0.05 to 1
